Experimental data from US11591322B2, “Certain chemical compositions and methods of use thereof” (Algen Biotechnologies, Inc., priority 2020, dated 2023).

Legend:
CDK9/CyclinT = CDK9/CyclinT (Homo sapiens (Human), UniProt P50750); test: CDK9 biochemical assay (Kinase-Glo Max luminescence); conditions: 30° C. for 45 minutes
Procedure: To each well of a 96-well plate was added 5× kinase assay buffer with 10 mM DTT (6 μL), 500 μM ATP (1 μL), 5×CDK substrate (10 μL), and water (8 μL). 5 μL of compound were added to the test and positive control groups, while 5 μL of solvent was added to the blank groups. 100 ng of CDK9/CyclinT in 20 μL water was added to the test and positive control groups, while 20 μL of 1× kinase assay buffer was added to the blank groups. The reaction mixtures were incubated at 30° C. for 45 minutes, and 50 μL of Kinase-Glo® Max was added to each well and the plates were shielded from light and incubated for 15 minutes at room temperature. Luminescence was measured on a microplate reader and IC50 values were calculated using Prism 9 software.

HepG2 cells = test: Cancer cell viability assay (CellTiter-Glo 2.0), HepG2; assay type: cell-based, Human; conditions: HepG2, 72 hours compound treatment
Procedure: (§1) Human liver cancer cell lines HepG2, Hep3B, Huh7, and SK-HEP-1 cells were rinsed and trypsinized with 0.25% trypsin (Corning #25-053-CI) in an incubator at 37° C. until detached. The cells were resuspended and seeded in 96-well plates to a density of 5,000 cells per well. Following cell adhesion, compounds were added to a final concentration of 2× dilution. 72 hours following compound treatment, CellTiter-Glo® 2.0 was added to the well in a 2:1 ratio of media/CellTiter-Glo® 2.0. The plates were shielded from light, shaken for 2 minutes, and incubated for 10 minutes. Luminescence was measured on a microplate reader and EC50 values were calculated using Prism 9 software.

Huh7 cells = test: Cancer cell viability assay (CellTiter-Glo 2.0), Huh7; assay type: cell-based, Human; conditions: Huh7, 72 hours compound treatment
Procedure: as §1

SK-HEP-1 cells = test: Cancer cell viability assay (CellTiter-Glo 2.0), SK-HEP-1; assay type: cell-based, Human; conditions: SK-HEP-1, 72 hours compound treatment
Procedure: as §1

Hep3B cells = test: Cancer cell viability assay (CellTiter-Glo 2.0), Hep3B; assay type: cell-based, Human; conditions: 72 hours compound treatment
Procedure: as §1

Chain of CDK9/CyclinT (P50750 whole entry): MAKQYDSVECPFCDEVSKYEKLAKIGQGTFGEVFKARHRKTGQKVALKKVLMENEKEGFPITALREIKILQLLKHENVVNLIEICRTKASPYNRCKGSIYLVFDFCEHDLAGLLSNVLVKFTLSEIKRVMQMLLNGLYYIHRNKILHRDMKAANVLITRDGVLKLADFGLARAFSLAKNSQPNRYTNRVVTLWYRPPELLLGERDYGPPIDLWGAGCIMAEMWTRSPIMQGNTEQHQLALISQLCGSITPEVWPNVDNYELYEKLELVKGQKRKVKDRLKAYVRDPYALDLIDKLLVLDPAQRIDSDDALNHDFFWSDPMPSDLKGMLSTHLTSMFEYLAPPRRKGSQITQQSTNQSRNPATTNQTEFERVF
Chain of CDK9/CyclinT (O60563 whole entry partner): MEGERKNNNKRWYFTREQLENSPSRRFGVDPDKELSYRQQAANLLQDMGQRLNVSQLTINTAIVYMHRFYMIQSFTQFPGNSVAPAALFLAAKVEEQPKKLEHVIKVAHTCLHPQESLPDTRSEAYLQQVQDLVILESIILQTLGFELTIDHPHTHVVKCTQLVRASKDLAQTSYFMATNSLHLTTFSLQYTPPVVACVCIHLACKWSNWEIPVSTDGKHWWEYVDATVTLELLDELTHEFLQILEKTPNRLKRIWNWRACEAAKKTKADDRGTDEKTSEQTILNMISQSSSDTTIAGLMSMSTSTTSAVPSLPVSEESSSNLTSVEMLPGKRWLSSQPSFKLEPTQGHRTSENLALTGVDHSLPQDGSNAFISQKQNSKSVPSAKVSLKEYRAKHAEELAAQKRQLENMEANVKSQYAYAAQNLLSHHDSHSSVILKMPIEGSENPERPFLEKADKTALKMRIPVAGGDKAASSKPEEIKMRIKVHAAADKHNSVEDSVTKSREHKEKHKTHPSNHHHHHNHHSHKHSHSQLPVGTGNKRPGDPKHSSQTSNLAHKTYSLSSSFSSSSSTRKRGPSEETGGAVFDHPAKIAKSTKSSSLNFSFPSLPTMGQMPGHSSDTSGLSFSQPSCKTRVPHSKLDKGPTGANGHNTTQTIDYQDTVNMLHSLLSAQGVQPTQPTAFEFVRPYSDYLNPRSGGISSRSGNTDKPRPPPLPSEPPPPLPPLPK

Row | Compound | IC50 (CDK9/CyclinT) [nM] | EC50 (HepG2 cells) [nM] | EC50 (Huh7 cells) [nM] | EC50 (SK-HEP-1 cells) [nM] | EC50 (Hep3B cells) [nM]
1 | C[C@@H](COCc1nn[nH]n1)NC1CCC(Nc2cc(-c3cccc(NCC4(C#N)CCOCC4)n3)c(Cl)cn2)CC1 (stereo partly drawn) [Compound 3, 4-(((2′-(((1S,4R)-4-(((S)-1-((2H-tetrazol-5-yl)methoxy)propan-2-yl)amino)cyclohexyl)amino)-5′-chloro-[2,4′-bipyridin]-6-yl)amino)methyl)tetrahydro-2H-pyran-4-carbonitrile] | > 10 | > 1000 | > 1000 | > 1000 | –
2 | CCOC(=O)COC[C@@H](C)NC1CCC(Nc2cc(-c3cccc(NCC4(C#N)CCOCC4)n3)c(Cl)cn2)CC1 (stereo partly drawn) [Compound 5] | < 2.5 | 500 to 1000 | < 100 | < 100 | –
3 | C[C@H](COCC(=O)O)NC1CCC(Nc2cc(-c3cccc(NCC4(C#N)CCOCC4)n3)c(Cl)cn2)CC1 (stereo partly drawn) [Compound 8, 2-((R)-2-(((1R,4R)-4-((5′-chloro-6-(((4-cyanotetrahydro-2H-pyran-4-yl)methyl)amino)-[2,4′-bipyridin]-2′-yl)amino)cyclohexyl)amino)propoxy)acetic acid] | 2.5 to 5 | > 1000 | > 1000 | > 1000 | –
4 | C[C@H](Cc1nnn[nH]1)NC1CCC(Nc2cc(-c3cccc(NCC4(C#N)CCOCC4)n3)c(Cl)cn2)CC1 (stereo partly drawn) [Compound 12, 4-(((2′-(((1R,4R)-4-(((R)-1-(1H-tetrazol-5-yl)propan-2-yl)amino)cyclohexyl)amino)-5′-chloro-[2,4′-bipyridin]-6-yl)amino)methyl)tetrahydro-2H-pyran-4-carbonitrile] | > 10 | > 1000 | – | – | –
5 | C[C@@H](Cc1nnn[nH]1)NC1CCC(Nc2cc(-c3cccc(NCC4(C#N)CCOCC4)n3)c(Cl)cn2)CC1 (stereo partly drawn) [Compound 13, 4-(((2′-(((1S,4R)-4-(((S)-1-(1H-tetrazol-5-yl)propan-2-yl)amino)cyclohexyl)amino)-5′-chloro-[2,4′-bipyridin]-6-yl)amino)methyl)tetrahydro-2H-pyran-4-carbonitrile] | > 10 | > 1000 | – | – | –
6 | CC(C)OC(=O)COC[C@@H](C)N[C@H]1CC[C@H](Nc2cc(-c3cccc(NCC4(C#N)CCOCC4)n3)c(Cl)cn2)CC1 [Compound 15, isopropyl 2-((R)-2-(((1r,4R)-4-((5′-Chloro-6-(((4-Cyanotetrahydro-2H-pyran-4-yl)methyl)amino)-[2,4′-bipyridin]-2′-yl)amino)cyclohexyl)amino)propoxy)acetate] | 2.5 to 5 | < 100 | < 100 | < 100 | –
7 | CCOC(=O)O[C@H](C)n1nnc(COC[C@@H](C)N[C@H]2CC[C@H](Nc3cc(-c4cccc(NCC5(C#N)CCOCC5)n4)c(Cl)cn3)CC2)n1 [Compound 21, (R)-1-(5-(((R)-2-(((1r,4R)-4-((5′-chloro-6-(((4-cyanotetrahydro-2H-pyran-4-yl)methyl)amino)-[2,4′-bipyridin]-2′-yl)amino)cyclohexyl)amino)propoxy)methyl)-2H-tetrazol-2-yl)ethyl ethyl carbonate] | < 2.5 | > 1000 | – | – | 500 to 1000
8 | CCOC(=O)O[C@H](C)n1nnc(COC[C@H](C)N[C@H]2CC[C@H](Nc3cc(-c4cccc(NCC5(C#N)CCOCC5)n4)c(Cl)cn3)CC2)n1 [Compound 22, (R)-1-(5-(((S)-2-(((1r,4S)-4-((5′-chloro-6-(((4-cyanotetrahydro-2H-pyran-4-yl)methyl)amino)-[2,4′-bipyridin]-2′-yl)amino)cyclohexyl)amino)propoxy)methyl)-2H-tetrazol-2-yl)ethyl ethyl carbonate] | 2.5 to 5 | > 1000 | – | – | 500 to 1000
9 | CCOC(=O)O[C@@H](C)n1nnc(COC[C@@H](C)N[C@H]2CC[C@H](Nc3cc(-c4cccc(NCC5(C#N)CCOCC5)n4)c(Cl)cn3)CC2)n1 [Compound 24, (S)-1-(5-(((R)-2-(((1r,4R)-4-((5′-chloro-6-(((4-cyanotetrahydro-2H-pyran-4-yl)methyl)amino)-[2,4′-bipyridin]-2′-yl)amino)cyclohexyl)amino)propoxy)methyl)-2H-tetrazol-2-yl)ethyl ethyl carbonate] | > 10 | > 1000 | – | – | > 1000
10 | CCOC(=O)O[C@@H](C)n1nnc(COC[C@H](C)N[C@H]2CC[C@H](Nc3cc(-c4cccc(NCC5(C#N)CCOCC5)n4)c(Cl)cn3)CC2)n1 [Compound 25, (S)-1-(5-(((S)-2-(((1r,4S)-4-((5′-chloro-6-(((4-cyanotetrahydro-2H-pyran-4-yl)methyl)amino)-[2,4′-bipyridin]-2′-yl)amino)cyclohexyl)amino)propoxy)methyl)-2H-tetrazol-2-yl)ethyl ethyl carbonate] | > 10 | > 1000 | – | – | > 1000
11 | CCOC(=O)O[C@H](C)n1nnnc1COC[C@@H](C)N[C@H]1CC[C@H](Nc2cc(-c3cccc(NCC4(C#N)CCOCC4)n3)c(Cl)cn2)CC1 [Compound 27, (R)-1-(5-(((R)-2-(((1r,4R)-4-((5′-chloro-6-(((4-cyanotetrahydro-2H-pyran-4-yl)methyl)amino)-[2,4′-bipyridin]-2′-yl)amino)cyclohexyl)amino)propoxy)methyl)-1H-tetrazol-1-yl)ethyl ethyl carbonate] | < 2.5 | > 1000 | – | – | > 1000
12 | CCOC(=O)O[C@H](C)n1nnnc1COC[C@H](C)N[C@H]1CC[C@H](Nc2cc(-c3cccc(NCC4(C#N)CCOCC4)n3)c(Cl)cn2)CC1 [Compound 28, (R)-1-(5-(((S)-2-(((1r,4S)-4-((5′-chloro-6-(((4-cyanotetrahydro-2H-pyran-4-yl)methyl)amino)-[2,4′-bipyridin]-2′-yl)amino)cyclohexyl)amino)propoxy)methyl)-1H-tetrazol-1-yl)ethyl ethyl carbonate] | > 10 | > 1000 | – | – | > 1000
13 | CCOC(=O)O[C@@H](C)n1nnnc1COC[C@@H](C)N[C@H]1CC[C@H](Nc2cc(-c3cccc(NCC4(C#N)CCOCC4)n3)c(Cl)cn2)CC1 [Compound 30, (S)-1-(5-(((R)-2-(((1r,4R)-4-((5′-chloro-6-(((4-cyanotetrahydro-2H-pyran-4-yl)methyl)amino)-[2,4′-bipyridin]-2′-yl)amino)cyclohexyl)amino)propoxy)methyl)-1H-tetrazol-1-yl)ethyl ethyl carbonate] | < 2.5 | 500 to 1000 | – | – | > 1000
14 | CCOC(=O)O[C@@H](C)n1nnnc1COC[C@H](C)N[C@H]1CC[C@H](Nc2cc(-c3cccc(NCC4(C#N)CCOCC4)n3)c(Cl)cn2)CC1 [Compound 31, (S)-1-(5-(((S)-2-(((1r,4S)-4-((5′-chloro-6-(((4-cyanotetrahydro-2H-pyran-4-yl)methyl)amino)-[2,4′-bipyridin]-2′-yl)amino)cyclohexyl)amino)propoxy)methyl)-1H-tetrazol-1-yl)ethyl ethyl carbonate] | < 2.5 | > 1000 | – | – | > 1000
15 | C[C@@H](COCc1nnn(C)n1)N[C@H]1CC[C@H](Nc2cc(-c3cccc(NCC4(C#N)CCOCC4)n3)c(Cl)cn2)CC1 [Compound 34, 4-(((5′-chloro-2′-(((1S,4r)-4-(((S)-1-((2-methyl-2H-tetrazol-5-yl)methoxy)propan-2-yl)amino)cyclohexyl)amino)-[2,4′-bipyridin]-6-yl)amino)methyl)tetrahydro-2H-pyran-4-carbonitrile] | > 10 | < 100 | – | – | 100 to 500
16 | C[C@H](COCc1nnnn1C)N[C@H]1CC[C@H](Nc2cc(-c3cccc(NCC4(C#N)CCOCC4)n3)c(Cl)cn2)CC1 [Compound 36, 4-(((5′-chloro-2′-(((1R,4r)-4-(((R)-1-((1-methyl-1H-tetrazol-5-yl)methoxy)propan-2-yl)amino)cyclohexyl)amino)-[2,4′-bipyridin]-6-yl)amino)methyl)tetrahydro-2H-pyran-4-carbonitrile] | < 2.5 | 100 to 500 | – | – | 500 to 1000
17 | C[C@@H](COCc1nnnn1C)N[C@H]1CC[C@H](Nc2cc(-c3cccc(NCC4(C#N)CCOCC4)n3)c(Cl)cn2)CC1 [Compound 37, 4-(((5′-chloro-2′-(((1S,4r)-4-(((S)-1-((1-methyl-1H-tetrazol-5-yl)methoxy)propan-2-yl)amino)cyclohexyl)amino)-[2,4′-bipyridin]-6-yl)amino)methyl)tetrahydro-2H-pyran-4-carbonitrile] | < 2.5 | 100 to 500 | – | – | 100 to 500
18 | CC(COCCNS(=O)(=O)C(F)F)NC1CCC(Nc2cc(-c3cccc(NCC4(C#N)CCOCC4)n3)c(Cl)cn2)CC1 (stereo not drawn) [Compound 41, N-(2-(2-(((1r,4r)-4-((5′-chloro-6-(((4-cyanotetrahydro-2H-pyran-4-yl)methyl)amino)-[2,4′-bipyridin]-2′-yl)amino)cyclohexyl)amino)propoxy)ethyl)-1,1-difluoromethanesulfonamide] | 5 to 10 | < 100 | – | – | 100 to 500
19 | COC[C@@H](C)NC1CCC(Nc2cc(-c3cccc(NCC4(C#N)CCOCC4)n3)c(Cl)cn2)CC1 (stereo partly drawn) [NVP-2, reference compound] | 2.5 to 5 | – | – | – | –
